According to patent US8263638B2, “Dosing regimens for ion channel modulating compounds” (priority 2004, dated 2012):
Read-outs that look alike come from different tables or passages of the source.

What was measured:
[1] = Plasma concentrations of COMPOUND A in electrophysiology study (Example 1); assay type: in vivo; conditions: human, intravenous, T = 45 min
Method: Blood samples for COMPOUND A concentrations were drawn at 0, 10 and 45 minutes after the start of drug infusion, and at discharge the next day.

[2] = COMPOUND A plasma concentrations in acute AF study (Example 2); assay type: in vivo, human
Method: (§1) A Holter rhythm strip continuously monitored ECG, vital signs (blood pressure and heart rate, BP and HR, respectively) and O2 saturation were recorded every 2 min from the start of infusion to 5 min after, as well as at 15, 30, 60, 120, 240, 360, and 480 min and at discharge and one-week follow-up. Twelve-lead ECGs were obtained before dosing and every minute during infusion to 5 min after, as well as at 15, 30, 60, 120, 240, 360, and 480 min and at discharge, 24 h and one-week follow-up, and at the time of arrhythmia termination or significant rhythm changes. Venous blood samples were drawn for COMPOUND A plasma concentrations at 0, 15, 30, 120, 240, 480 min discharge and at AF termination or significant adverse events.
COMPOUND A doses were infused over 10 min as indicated in the text. Initially a 2 mg/kg infusion was given and if required an additional 3 mg/kg was infused 30 min later in the RSD-2 group. Time is shown relative to the end of the first infusion (T1).

[3] = test system: atrial fibrillation of 3 to 72 h duration; test: Randomized, double-blind, step-dose, placebo-controlled study in acute atrial fibrillation (Example 2); assay type: in vivo, human
Method: This was a randomized, double-blind, step-dose, placebo-controlled, parallel group study on humans. Fifty-six patients with atrial fibrillation of 3 to 72 h duration were randomized to one of two COMPOUND A dose groups or to placebo. The two COMPOUND A groups were RSD-1 (0.5 mg/kg followed by 1.0 mg/kg) or RSD-2 (2.0 mg/kg followed by 3.0 mg/kg), doses given by intravenous infusion over 10 min. The primary endpoint was termination of atrial fibrillation during a 10-min infusion or the subsequent 30-min. Secondary endpoints included the number of patients in sinus rhythm at 0.5, 1 and 24 h post-infusion and time to conversion to sinus rhythm. […] COMPOUND A converted acute atrial fibrillation to sinus rhythm.
Patients in this study had to have a rhythm of sustained atrial fibrillation (AF) with a duration of 3 to 72 h at the time of randomization. Patients were randomized to one of three groups and in each group received up to two 10-min intravenous infusions, separated by 30 min. Infusions were placebo followed by placebo, 0.5 mg/kg followed by 1.0 mg/kg COMPOUND A, or 2.0 […] COMPOUND A. The second dose in each group was administered only if AF was present 30 min after completion of the first dose. Doses for patients weighing>113 kg were capped as if the patient weight was 113 kg.
as §1
Fifty-five patients were evaluated for efficacy. Data are presented as mean±SD, median with interquartile range (IQR), all tests were performed as two sided and 95% confidence interval (CI) were produced; p<0.05 was considered statistically significant unless stated otherwise. Analysis of the relationship between termination of AF and treatment was performed using a chi-square analysis. In cases of small cell frequencies, the Fisher's exact test was used. A Cochran-Armitage test statistic with table scores was used to test the ascending dose evaluation of efficacy.
The time to conversion from the start of the first infusion was analyzed by the Cox regression method of event time analysis and one-way ANOVA. Assessment of the significance of time point values and mean change from baseline to each follow-up reading of ECG intervals (QRS, QT, QTc), BP, and HR were made within dose groups using paired t tests, and comparisons among dose groups were made using a one-way ANOVA.

[4] = Plasma levels in Atrial Arrhythmia Conversion Trial 1 (Example 6); assay type: in vivo, human; conditions: for concentration at 10 min: human, plasma, intravenous
Method: Plasma levels were obtained, where possible, for the patients at various time intervals following the initial infusion. The time intervals were 10 minutes (i.e., immediately after the initial infusion), 35 minutes (i.e., immediately after the second infusion where applicable), 50 minutes, 90 minutes, and 24 hours.

[5] = patients that received only the 2 mg/kg infusion
[6] = End infusion 1, 0.5 and 1.0 mg/kg
[7] = End infusion 1, 2.0 and 3.0 mg/kg
[8] = End infusion 2, 0.5 and 1.0 mg/kg
[9] = End infusion 2, 2.0 and 3.0 mg/kg
[10] = patients receiving both infusions
[11] = patients receiving only a first infusion

## COc1ccc(CCO[C@@H]2CCCC[C@H]2N2CC[C@@H](O)C2)cc1OC.Cl [COMPOUND A, (1R,2R)-2-[(3R)-hydroxypyrrolidinyl]-1-(3,4-dimethoxyphenethoxy)cyclohexane monohydrochloride]
[1]; Dose Level 1, 2 mg/kg
  concentration at 45 min: 1080 ± 279 ng/mL
[1]; Dose Level 2, 4 mg/kg
  concentration at 45 min: 2170 ± 422 ng/mL
[2]; RSD-1, majority of patients
  Plasma drug levels at 24 h post-infusion (below the limit of detection): < 5 ng/mL
[2]; RSD-2 group
  mean plasma levels at 24 h: 17 ng/mL
[2]; patients that received both 0.5 and 1.0 mg/kg
  Mean peak plasma levels: 1.9 µg/mL
[2]; patients that received both the 2.0 and 3.0 mg/kg infusions
  Mean peak plasma levels: 5.8 µg/mL
[2]; [5]
  mean peak plasma levels at the end of infusion: 2.6 µg/mL
  mean terminal elimination half life: 3.1 h
  median plasma level at the time of AF conversion: 1.3 µg/mL
[3]; 61% to 5% (placebo)
  net efficacy for conversion of recent onset AF: 56%
[3]; COMPOUND A treatment groups (FIG. 1)
  median time for termination of AF from the start of the first infusion: 11 min
[3]; [6]
  HEART RATE: 104 ± 7 BPM
  QRS: 86 ± 3 ms
  QTc: 419 ± 6 ms
[3]; [7]
  HEART RATE: 98 ± 5 BPM
  QRS: 95 ± 3 ms
  QTc: 449 ± 9 ms
[3]; [8]
  HEART RATE: 107 ± 6 BPM
  QRS: 90 ± 6 ms
  QTc: 414 ± 11 ms
[3]; [9]
  HEART RATE: 104 ± 6 BPM
  QRS: 99 ± 5 ms
  QTc: 447 ± 17 ms
[3]; RSD-1: 0.5 mg/kg followed by 1.0 mg/kg i.v.
  cumulative AF termination within 30 min of infusion: 11%
[3]; RSD-1: 0.5 + 1.0 mg/kg
  patients in sinus rhythm (excluding those electrically cardioverted) at 24 h post infusion: 56%
  patients in sinus rhythm at 30 min post-infusion: 11%
  patients in sinus rhythm at 1 h post infusion: 11%
[3]; RSD-1, five eventual responders
  median time to conversion to sinus rhythm from the start of the first infusion: 166 min
[3]; RSD-1 group
  patients reporting cardiac disorders (adverse events): 22.2%
[3]; RSD-1 treated
  electrical cardioversion attempted within the study period (24 h): 50%
  electrical cardioversion successful: 100%
[3]; RSD-2: 2.0 mg/kg followed by 3.0 mg/kg i.v.
  cumulative AF termination within 30 min of infusion: 61%
[3]; RSD-2: 2.0 + 3.0 mg/kg
  patients in sinus rhythm (excluding those electrically cardioverted) at 24 h post infusion: 79%
  patients in sinus rhythm at 30 min post-infusion: 56%
  patients in sinus rhythm at 1 h post infusion: 53%
[3]; RSD-2, eleven responders
  median time to conversion to sinus rhythm from the start of the first infusion: 14 min
[3]; RSD-2 dose, T1=15 min (baseline mean 106)
  mean heart rate: 90 beats per min
[3]; RSD-2 group
  median time to termination of AF after start of the first infusion: 11 min
  patients reporting cardiac disorders (adverse events): 16.7%
[3]; RSD-2 treated
  electrical cardioversion attempted within the study period (24 h): 22%
  electrical cardioversion successful: 100%
[3]; human, in vivo
  QT interval, first available ECG records after conversion to sinus rhythm: 366 ± 28 ms
  QTc interval, first available ECG records after conversion to sinus rhythm: 427 ± 19 ms
[3]; in vivo
  drug related proarrhythmia: no instances
[3]; infusion
  effect on QTc or QRS intervals compared to placebo: did not significantly prolong
[4]; 2 mg/kg, patients receiving both infusions (3.0 + 2.0 mg/kg), read-out: Plasma Concentration of COMPOUND A at 10 min., Mean
  concentration at 10 min: 3910 ng/mL
[4]; 3 mg/kg, patients receiving only a first infusion (3.0 mg/kg), read-out: Plasma Concentration of COMPOUND A at 10 min., Mean
  concentration at 10 min: 4280 ng/mL
[4]; 3 mg/kg, patients receiving only a first infusion, read-out: Plasma Concentration of COMPOUND A at 10 min., Maximum
  concentration at 10 min: 11600 ng/mL
[4]; 3 mg/kg, patients receiving only a first infusion, read-out: Plasma Concentration of COMPOUND A at 10 min., Median
  concentration at 10 min: 4080 ng/mL
[4]; 3 mg/kg, patients receiving only a first infusion, read-out: Plasma Concentration of COMPOUND A at 10 min., Minimum
  concentration at 10 min: 0 ng/mL
[4]; patients receiving both infusions, read-out: Plasma Concentration of COMPOUND A at 10 min., Maximum
  concentration at 10 min: 9330 ng/mL
[4]; patients receiving both infusions, read-out: Plasma Concentration of COMPOUND A at 10 min., Median
  concentration at 10 min: 4070 ng/mL
[4]; patients receiving both infusions, read-out: Plasma Concentration of COMPOUND A at 10 min., Minimum
  concentration at 10 min: 0 ng/mL
[4]; [10]
  Maximum Plasma Concentration of COMPOUND A, Maximum: 9330 ng/mL
  Maximum Plasma Concentration of COMPOUND A, Median: 4855 ng/mL
  Maximum Plasma Concentration of COMPOUND A, Minimum: 1430 ng/mL
[4]; patients receiving both infusions (3.0 + 2.0 mg/kg)
  Maximum Plasma Concentration of COMPOUND A, Mean: 4662 ng/mL
[4]; [11]
  Maximum Plasma Concentration of COMPOUND A, Maximum: 11600 ng/mL
  Maximum Plasma Concentration of COMPOUND A, Median: 4075 ng/mL
  Maximum Plasma Concentration of COMPOUND A, Minimum: 7 ng/mL
[4]; patients receiving only a first infusion (3.0 mg/kg)
  Maximum Plasma Concentration of COMPOUND A, Mean: 4466 ng/mL
